According to patent US12146004B2, “Polymyxin compounds and uses thereof” (priority 2014, dated 2024):
Values after ≈ are worked out from the molar mass of the structure shown. Numbered stars: 1 amine (or outer) side, 2 acyl side, 3 side chain; on linkers, the order of the positions; unused ones are H or OH. Bridge positions count the residues as written; N and C are the ends. Square brackets hold non-standard residues; d marks the D form. Peptide text beside a SMILES is read from it. * marks the point of attachment. ξ: configuration not given here. X17 = CCCCCCN([C@@H](CCN)C(=O)[*:2])[*:1]; ξHexahydromandeloyl = O=C(C(O)C1CCCCC1)*; X23 = NCC[C@H](OCc1ccccc1)C(=O)*; dCha = N[C@H](CC1CCCCC1)C(=O)O; Thr(3ξ) = CC(O)[C@H](N)C(=O)O; X1 = CC(C)CN1CCNC[C@H]1C(=O)*; X25 = CCCCO[C@@H](CCN)C(=O)*; X20 = NCC(Cc1ccccc1F)C(=O)*; X21 = NCC(CC1CCCCC1)C(=O)*; X22 = NC(CCC(=O)*)C1CCCCC1; Dab = NCC[C@H](N)C(=O)O; Dap = NC[C@H](N)C(=O)O; X18 = CCCCC(CCN)C(=O)*

How the values were obtained:
Format in all cases: cell-based
Pseudomonas aeruginosa = test system: Pseudomonas aeruginosa
Summary of the method: (§1)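 Susceptibility testing covered up to nine strains of each Gram-negative pathogen, among them resistant strains and strains with elevated MICs to Polymyxin. Values are MICs in μg/mL.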

Klebsiella pneumoniae = test system: Klebsiella pneumoniae
Summary of the method: as §1

Acinetobacter baumannii = test system: Acinetobacter baumannii
Summary of the method: as §1

Escherichia coli = test system: Escherichia coli
Summary of the method: as §1

SMILES	MIC P. aeruginosa 068 (Pseudomonas aeruginosa) [mg/L]	MIC P. aeruginosa 070 (Pseudomonas aeruginosa) [mg/L]	MIC P. aeruginosa ATCC 27853 (Pseudomonas aeruginosa) [mg/L]	MIC P. aeruginosa CCUG 59347 (Pseudomonas aeruginosa) [mg/L]	MIC K. pneumoniae 063 (Klebsiella pneumoniae) [mg/L]	MIC K. pneumoniae 065 (Klebsiella pneumoniae) [mg/L]	MIC K. pneumoniae ATCC 13882 (Klebsiella pneumoniae) [mg/L]	MIC A. baumanii 053 (Acinetobacter baumannii) [mg/L]	MIC A. baumanii 056 (Acinetobacter baumannii) [mg/L]	MIC A. baumanii ATCC BAA-747 (Acinetobacter baumannii) [mg/L]	MIC A. baumanii NCTC 13424 (Acinetobacter baumannii) [mg/L]	MIC E. coli 058 (Escherichia coli) [mg/L]	MIC E. coli 061 (Escherichia coli) [mg/L]	MIC E. coli ATCC 25922 (Escherichia coli) [mg/L]	MIC E. coli NCTC 9001 (Escherichia coli) [mg/L]
CC(C)C[C@@H]1NC(=O)[C@@H](CC2CCCCC2)NC(=O)[C@H](CCN)NC(=O)[C@@H](NC(=O)[C@H](CN)NC(=O)[C@@H](NC(=O)C(CN)CC2CCCCC2)C(C)O)CCNC(=O)[C@H]([C@@H](C)O)NC(=O)[C@H](CCN)NC(=O)[C@H](CCN)NC1=O (stereo partly drawn) [Example 31, 3-amino-2-(cyclohexylmethyl) propanoyl L-Thr-L-Dap-polymyxin [D-cyclohexylalanine]-6 heptapeptide] (X21-[Thr(3ξ)][Dap][Dab][Dab][dCha]L[Dab][Dab]T; lactam 3-C)	2 (≈ 1.78 µM)	2 (≈ 1.78 µM)	0.5 (≈ 0.445 µM)	1 (≈ 0.891 µM)	16 (≈ 14.3 µM)	1 (≈ 0.891 µM)	0.5 (≈ 0.445 µM)	32 (≈ 28.5 µM)	16 (≈ 14.3 µM)	0.25 (≈ 0.223 µM)	0.5 (≈ 0.445 µM)	2 (≈ 1.78 µM)	16 (≈ 14.3 µM)	0.5 (≈ 0.445 µM)	–
CC(C)C[C@@H]1NC(=O)[C@@H](CC2CCCCC2)NC(=O)[C@H](CCN)NC(=O)[C@@H](NC(=O)[C@H](CCN)NC(=O)[C@@H](NC(=O)[C@H](CCN)NC(=O)C(O)C2CCCCC2)C(C)O)CCNC(=O)[C@H]([C@@H](C)O)NC(=O)[C@H](CCN)NC(=O)[C@H](CCN)NC1=O (some centres unmarked) [Example 37] (ξHexahydromandeloyl-[Dab][Thr(3ξ)][Dab][Dab][Dab][dCha]L[Dab][Dab]T; lactam 4-C)	–	–	0.5 (≈ 0.413 µM)	0.5 (≈ 0.413 µM)	–	16 (≈ 13.2 µM)	0.25 (≈ 0.207 µM)	–	–	0.125 (≈ 0.103 µM)	0.5 (≈ 0.413 µM)	8 (≈ 6.61 µM)	–	0.06 (≈ 0.0496 µM)	0.06 (≈ 0.0496 µM)
CCCCC(CCN)C(=O)N[C@H](C(=O)N[C@@H](CCN)C(=O)N[C@H]1CCNC(=O)[C@H]([C@@H](C)O)NC(=O)[C@H](CCN)NC(=O)[C@H](CCN)NC(=O)[C@H](CC(C)C)NC(=O)[C@@H](CC2CCCCC2)NC(=O)[C@H](CCN)NC1=O)C(C)O (stereo partly drawn) [Example 40, 2-(2-aminoethyl) hexanoyl [D-cyclohexylalanine]-6 nonapeptide.] (X18-[Thr(3ξ)][Dab][Dab][Dab][dCha]L[Dab][Dab]T; lactam 3-C)	4 (≈ 3.6 µM)	8 (≈ 7.2 µM)	0.5 (≈ 0.45 µM)	0.5 (≈ 0.45 µM)	16 (≈ 14.4 µM)	2 (≈ 1.8 µM)	0.25 (≈ 0.225 µM)	>64	64 (≈ 57.6 µM)	0.06 (≈ 0.054 µM)	0.125 (≈ 0.113 µM)	8 (≈ 7.2 µM)	16 (≈ 14.4 µM)	0.125 (≈ 0.113 µM)	0.03 (≈ 0.027 µM)
CCCCO[C@@H](CCN)C(=O)N[C@H](C(=O)N[C@@H](CN)C(=O)N[C@H]1CCNC(=O)[C@H]([C@@H](C)O)NC(=O)[C@H](CCN)NC(=O)[C@H](CCN)NC(=O)[C@H](CC(C)C)NC(=O)[C@@H](CC2CCCCC2)NC(=O)[C@H](CCN)NC1=O)C(C)O (stereo partly drawn) [Example 46, (S)-4-amino-2-butoxybutanoyl L-Thr-L-Dap-polymyxin [D-cyclohexylalanine]-6 heptapeptide.] (X25-[Thr(3ξ)][Dap][Dab][Dab][dCha]L[Dab][Dab]T; lactam 3-C)	16 (≈ 14.4 µM)	32 (≈ 28.8 µM)	0.5 (≈ 0.449 µM)	0.5 (≈ 0.449 µM)	>64	2 (≈ 1.8 µM)	0.25 (≈ 0.225 µM)	>64	>64	0.125 (≈ 0.112 µM)	0.125 (≈ 0.112 µM)	8 (≈ 7.19 µM)	–	0.125 (≈ 0.112 µM)	–
CCCCCCN[C@@H](CCN)C(=O)N[C@H](C(=O)N[C@@H](CN)C(=O)N[C@H]1CCNC(=O)[C@H]([C@@H](C)O)NC(=O)[C@H](CCN)NC(=O)[C@H](CCN)NC(=O)[C@H](CC(C)C)NC(=O)[C@@H](CC2CCCCC2)NC(=O)[C@H](CCN)NC1=O)C(C)O (stereo partly drawn) [Example 49, (S)-4-amino-2-(hexylamino) butanoyl L-Thr-L-Dap-polymyxin [D-cyclohexylalanine]-6 heptapeptide.] (H-[X17][Thr(3ξ)][Dap][Dab][Dab][dCha]L[Dab][Dab]T; lactam 4-C)	2 (≈ 1.76 µM)	2 (≈ 1.76 µM)	0.25 (≈ 0.219 µM)	0.25 (≈ 0.219 µM)	32 (≈ 28.1 µM)	2 (≈ 1.76 µM)	0.5 (≈ 0.439 µM)	64 (≈ 56.2 µM)	64 (≈ 56.2 µM)	0.5 (≈ 0.439 µM)	0.25 (≈ 0.219 µM)	2 (≈ 1.76 µM)	16 (≈ 14 µM)	0.5 (≈ 0.439 µM)	0.125 (≈ 0.11 µM)
CC(C)C[C@@H]1NC(=O)[C@@H](CC2CCCCC2)NC(=O)[C@H](CCN)NC(=O)[C@@H](NC(=O)[C@H](CN)NC(=O)[C@@H](NC(=O)CCC(N)C2CCCCC2)[C@@H](C)O)CCNC(=O)[C@H]([C@@H](C)O)NC(=O)[C@H](CCN)NC(=O)[C@H](CCN)NC1=O (stereo partly drawn) [Example 63, 4-amino-4-cyclohexylbutanoyl L-Thr-L-Dap-polymyxin [D-cyclohexylalanine]-6 heptapeptide.] (X22-T[Dap][Dab][Dab][dCha]L[Dab][Dab]T; lactam 3-C)	8 (≈ 7.13 µM)	8 (≈ 7.13 µM)	0.25 (≈ 0.223 µM)	0.5 (≈ 0.445 µM)	>64	4 (≈ 3.56 µM)	0.125 (≈ 0.111 µM)	64 (≈ 57 µM)	32 (≈ 28.5 µM)	0.125 (≈ 0.111 µM)	0.125 (≈ 0.111 µM)	4 (≈ 3.56 µM)	16 (≈ 14.3 µM)	0.25 (≈ 0.223 µM)	–

More lines, now with the values ahead:

MIC P. aeruginosa 068 (Pseudomonas aeruginosa) [mg/L]	MIC P. aeruginosa 070 (Pseudomonas aeruginosa) [mg/L]	MIC P. aeruginosa ATCC 27853 (Pseudomonas aeruginosa) [mg/L]	MIC P. aeruginosa CCUG 59347 (Pseudomonas aeruginosa) [mg/L]	MIC K. pneumoniae 063 (Klebsiella pneumoniae) [mg/L]	MIC K. pneumoniae 065 (Klebsiella pneumoniae) [mg/L]	MIC K. pneumoniae ATCC 13882 (Klebsiella pneumoniae) [mg/L]	MIC A. baumanii 053 (Acinetobacter baumannii) [mg/L]	MIC A. baumanii 056 (Acinetobacter baumannii) [mg/L]	MIC A. baumanii ATCC BAA-747 (Acinetobacter baumannii) [mg/L]	MIC A. baumanii NCTC 13424 (Acinetobacter baumannii) [mg/L]	MIC E. coli 058 (Escherichia coli) [mg/L]	MIC E. coli 061 (Escherichia coli) [mg/L]	MIC E. coli ATCC 25922 (Escherichia coli) [mg/L]	MIC E. coli NCTC 9001 (Escherichia coli) [mg/L]	SMILES
8 (≈ 6.98 µM)	16 (≈ 14 µM)	0.25 (≈ 0.218 µM)	0.25 (≈ 0.218 µM)	64 (≈ 55.8 µM)	5 (≈ 4.36 µM)	0.125 (≈ 0.109 µM)	>64	32 (≈ 27.9 µM)	0.125 (≈ 0.109 µM)	0.25 (≈ 0.218 µM)	4 (≈ 3.49 µM)	32 (≈ 27.9 µM)	0.125 (≈ 0.109 µM)	–	CC(C)C[C@@H]1NC(=O)[C@@H](CC2CCCCC2)NC(=O)[C@H](CCN)NC(=O)[C@@H](NC(=O)[C@H](CN)NC(=O)[C@@H](NC(=O)[C@H](CCN)OCc2ccccc2)C(C)O)CCNC(=O)[C@H]([C@@H](C)O)NC(=O)[C@H](CCN)NC(=O)[C@H](CCN)NC1=O (stereo partly drawn) [Example 48, (S)-4-amino-2-(benzyloxy) butanoyl L-Thr-L-Dap-polymyxin [D-cyclohexylalanine]-6 heptapeptide.] (X23-[Thr(3ξ)][Dap][Dab][Dab][dCha]L[Dab][Dab]T; lactam 3-C)
16 (≈ 14.1 µM)	16 (≈ 14.1 µM)	0.5 (≈ 0.44 µM)	1 (≈ 0.879 µM)	64 (≈ 56.3 µM)	8 (≈ 7.03 µM)	0.25 (≈ 0.22 µM)	>64	>64	0.25 (≈ 0.22 µM)	0.25 (≈ 0.22 µM)	8 (≈ 7.03 µM)	16 (≈ 14.1 µM)	0.25 (≈ 0.22 µM)	–	CC(C)C[C@@H]1NC(=O)[C@@H](CC2CCCCC2)NC(=O)[C@H](CCN)NC(=O)[C@@H](NC(=O)[C@H](CCN)NC(=O)[C@@H](NC(=O)[C@@H]2CNCCN2CC(C)C)C(C)O)CCNC(=O)[C@H]([C@@H](C)O)NC(=O)[C@H](CCN)NC(=O)[C@H](CCN)NC1=O (stereo partly drawn) [Example 52, (S)-1-isobutylpiperazine-2-carbonyl polymyxin [D-cyclohexylalanine]-6 nonapeptide] (X1-[Thr(3ξ)][Dab][Dab][Dab][dCha]L[Dab][Dab]T; lactam 3-C)
8 (≈ 6.97 µM)	16 (≈ 13.9 µM)	0.5 (≈ 0.435 µM)	0.5 (≈ 0.435 µM)	64 (≈ 55.7 µM)	8 (≈ 6.97 µM)	0.125 (≈ 0.109 µM)	>64	>64	0.5 (≈ 0.435 µM)	0.5 (≈ 0.435 µM)	4 (≈ 3.48 µM)	32 (≈ 27.9 µM)	0.125 (≈ 0.109 µM)	–	CC(C)C[C@@H]1NC(=O)[C@@H](CC2CCCCC2)NC(=O)[C@H](CCN)NC(=O)[C@@H](NC(=O)[C@H](CCN)NC(=O)[C@@H](NC(=O)C(CN)Cc2ccccc2F)[C@@H](C)O)CCNC(=O)[C@H]([C@@H](C)O)NC(=O)[C@H](CCN)NC(=O)[C@H](CCN)NC1=O (some centres unmarked) [Example 62, 3-amino-2-(2-fluorobenzyl) propanoyl] (X20-T[Dab][Dab][Dab][dCha]L[Dab][Dab]T; lactam 3-C)
